# How the values were obtained:
# [1] = system: subcutaneous teratomas comprising ALINK-modified mouse C2 cells; experiment: Teratoma assay, ALINK-modified mouse C2 ES cells; type: in vivo
# Experimental: (§1) Matrigel Matrix High Concentration (Corning) was diluted 1:3 with cold DMEM media on ice. 5-10×10^6 cells were suspended into 100 ul of 66% DMEM+33% Matrigel media and injected subcutaneously into either or both dorsal flanks of B6N mice (for mouse C2 ES cells) and NOD-SCID mice (for human ES cells). Teratomas formed 2-4 weeks after injection. Teratoma size was measured by caliper, and teratoma volume was calculated using the formula V=(L×W×H)π/6. GCV/PBS treatment was performed by daily injection with 50 mg/kg into the peritoneal cavity with different treatment durations. At the end of treatment, mice were sacrificed and tumors were dissected and fixed in 4% paraformaldehyde for histology analysis.
# [2] = system: ALINK-modified MMTV-PyMT-transformed mammary epithelial tumorigenic cell grafts; experiment: Mammary gland tumor assay; type: in vivo, mouse; conditions: B6N hosts; GCV 50 mg/kg every other day i.p.
# Text: Chimeras of Cdk1^+/+, +/loxp-alink mouse C2 ES and CD-1 backgrounds were generated through diploid aggregation, and then were bred with B6N WT mice to generate Cdk1^+/+, +/loxp-alink mice through germline transmission. Cdk1^+/+, +/loxp-alink mice were bred with Ella-Cre mice to generate Cdk1^+/+, +/alink mice. Cdk1^+/+, +/alink mice were then bred with MMTV-PyMT mice (Guy et al., 1992) to get double-positive pups with mammary gland tumors and ALINK modification. Mammary gland tumors with fail-safe modification were isolated, cut into 1 mm^3 pieces, and transplanted into the 4th mammary gland of wild-type B6N females. GCV/PBS treatment was injected every other day at the dosage of 50 mg/kg into the peritoneal cavity with different treatment durations. Mammary gland tumor size was measured by calipers and calculated with the formula V=Length*Width*Height*π/6.
# [3] = system: mixed culture of non-dividing neurons and dividing NEPs derived from Cdk1+/+,+/alink human CA1 ES cells; experiment: Neuronal progenitor vs. neuron killing assay; type: cell-based; conditions: GCV 10 uM every other day for 20 days
# Experimental: Cdk1^+/+, +/alink human CA1 ES cells were differentiated to neural epithelial progenitor cells (NEPs). NEPs were subsequently cultured under conditions for differentiation into neurons, thereby generating a mixed culture of non-dividing neurons and dividing NEPs, which were characterized by immunostaining of DAPI, Ki67 and Sox2. GCV (10 uM) was provided to the mixed culture every other day for 20 days. Then, GCV was withdrawn from culture for 4 days before cells were fixed by 4% PFA. Fixed cells were immunostained for proliferation marker Ki67 to check whether all the leftover cells have exited cell cycle, and mature neutron marker beta-TublinIII.
# [4] = system: subcutaneous teratomas comprising ALINK-modified H1 ES cells; experiment: Teratoma assay, ALINK-modified human ES cells; type: in vivo, mouse (human ES cell graft); conditions: NOD scid gamma mouse hosts; two rounds of GCV (15 days + 40 days)
# Experimental: as §1
# Eef2-EARC ES cells = experiment: Targeted cell growth of Eef2-EARC ES cells; type: cell-based, mouse; conditions: withdrawal of doxycycline
# Experimental: (§2) Eef2 homozygously-targeted cells were trypsinized and plated on gelatinized 24 well plates at a density of 5×10^4 cells per well. Starting one day after plating, cells were exposed to different Dox concentrations (1 μg/ml, 0.5 μg/ml, 0.05 μg/ml and 0 μg/ml), the plate was analyzed in a IncucyteZoom system (Essen Bioscience) by taking pictures every two hours for 3-4 days and measuring confluence.
# [5] = system: homozygous Cdk1 dox-bridge knock-in mouse ES cells; experiment: Targeted cell growth of Cdk1 dox-bridge (EARC) ES cells; type: cell-based; conditions: withdrawal of doxycycline
# Experimental: F3-bridge targeted cells were trypsinized and plated on gelatinized 24 well plates at a density of 5×10^4 cells per well. Starting one day after plating, cell counting was performed by trypsinizing 3 wells for each condition and counting live cells using a Countess automated cell counter (Life Technologies). Doxycycline was removed or reduced to 0.05 ng/ml 2 days after plating and live cells were counted every day up to 18 days in the different conditions.
# Cenpa-EARC ES cells = experiment: Targeted cell growth of Cenpa-EARC ES cells; type: cell-based, mouse; conditions: withdrawal of doxycycline
# Experimental: as §2, with “Cenpa” for “Eef2”, “confluency.” for “confluence.”
# Birc5-EARC ES cells = experiment: Targeted cell growth of Birc5-EARC ES cells; type: cell-based, mouse; conditions: withdrawal of doxycycline
# Experimental: as §2, with “Birc5” for “Eef2”
# Top2a-EARC ES cells = experiment: Targeted cell growth of Top2a-EARC ES cells; type: cell-based, mouse; conditions: withdrawal of doxycycline
# Experimental: as §2, with “Top2a” for “Eef2”, “confluency.” for “confluence.”
# [6] = cited from earlier work
compound,measurement,setting,value
"Nc1nc(O)c2ncn(COC(CO)CO)c2n1 [GCV, ganciclovir]",effect on quiescent cells of the teratoma,[1]; GCV 50 mg/kg daily i.p.,did not affect quiescent cells of the teratoma
same,teratoma growth,[1]; GCV 50 mg/kg daily i.p.,stops teratoma growth
same,teratoma dormancy,[1]; brief (3 week) GCV treatment period,sufficient to render the teratomas dormant
same,mammary gland tumor dormancy,[2],able to render the mammary gland tumors to dormancy
same,killing of dividing NEPs,[3],killed the dividing NEPs
same,killing of non-dividing neurons,[3],did not kill the non-dividing neurons
same,teratoma dormancy,[4],rendered the teratomas to dormancy
C[C@H]1c2cccc(O)c2C(=O)C2=C(O)[C@]3(O)C(=O)C(C(N)=O)=C(O)[C@@H](N(C)C)[C@@H]3[C@@H](O)[C@@H]21 [doxycycline],time to complete elimination of mitotically active ES cells,Eef2-EARC ES cells,≤ 4 days
same,time to complete elimination of mitotically active ES cells,[5],≤ 5 days
same,time to complete elimination of mitotically active ES cells,Cenpa-EARC ES cells,≤ 4 days
same,time to complete elimination of mitotically active ES cells,Birc5-EARC ES cells,≤ 4 days
same,time to complete elimination of mitotically active ES cells,Top2a-EARC ES cells,≤ 4 days
Bms1,"CS score (CRISPR score average provided in Wang et al., 2015)","[6]; gene locus (predicted CDL), CRISPR score average",−1.36
Ppan,CS score,"[6]; CRISPR score average provided in Wang et al., 2015, score of the gene locus (predicted CDL)",−1.62
